# According to ChEMBL document CHEMBL1146400, “10-Epi-olguine from Rabdosia ternifolia” (1997):
# Columns and labels:
# Format in all cases: functional
# Details in all cases: read-out: ED50 (the source's name)
# [1] = Cytotoxicity against human KBVIN cells in absence of vinblastine
# [2] = Cytotoxicity against human BC1 cells
# [3] = system: Lu1; assay: Cytotoxicity against human Lu1 cells
# [4] = Cytotoxicity against human KBVIN cells in presence of vinblastine
# [5] = system: Col2; assay: Cytotoxicity against human Col2 cells
# [6] = system: KB; assay: Cytotoxicity against human KB cells
# [7] = system: LNCaP; assay: Cytotoxicity against human LNCAP cells
structure (smiles),measurement,setting,value
CC(=O)O[C@@H](C)[C@@H](/C=C/[C@@H]1O[C@@H]1[C@@H]1OC(=O)C=C[C@@H]1OC(C)=O)OC(C)=O,EC50,[1],2.1 µg/mL
same,EC50,[2],1.8 µg/mL
same,EC50,[3],4.8 µg/mL
same,EC50,[4],2.2 µg/mL
same,EC50,[5],2.1 µg/mL
same,EC50,[6],1.8 µg/mL
same,EC50,[7],1.2 µg/mL
